According to patent US20170197977A9, “COMPOSITIONS AND METHODS FOR TREATING NEURODEGENERATIVE DISEASE” (COGNITION THERAPEUTICS, INC., priority 2011, published 2017):
Where two headings read alike, the source gives them in different places.

Columns and labels:
[1] = tested on: Abeta oligomer-induced membrane trafficking deficits; assay: Membrane trafficking/exocytosis (MTT) assay in mature primary hippocampal neurons; assay type: cell-based, rat; conditions: for Functional Neuronal Phenotype: Table 10B
Protocol: The present exocytosis assay was adapted for use with mature primary neuronal cultures grown for 3 weeks in vitro.
The methods used to generate the results were as follows in the Membrane Trafficking/Exocytosis (MTT) assay.
Primary hippocampal neurons from E18 Sprague-Dawley rat embryos were plated at optimized concentrations in 384 well plates in NB media (Invitrogen). Neurons were maintained in cultures for 3 weeks, with twice weekly feeding of NB media with N2 supplement (Invitrogen).
[…] MTT reagent (3-(4,5-dimethylthizaol-2yl)-2,5diphenyl tetrazolium bromide) (Roche Molecular Biochemicals) was reconstituted in phosphate buffered saline to 5 mg/mL. 10 μL of MTT labeling reagent is added to each well and incubated at 37° C. for 1 h, then imaged. Exocytosis was assessed by automated microscopy and image processing to quantify the amount of endocytosed and exocytosed formazan.
Each assay plate was formatted so that compounds are tested with and without Abeta oligomer on each plate.

[2] = tested on: Abeta oligomer-induced synapse loss; assay: Synapse loss assay (synaptophysin puncta) in primary neurons; assay type: cell-based, rat; conditions: for Block synapse loss: Table 10B; for Abeta oligomer-induced synapse loss: in words
Protocol: In this assay, Abeta oligomers were brought in contact with mature primary neurons in culture and their binding was determined by immunohistochemistry (anti-Abeta antibody) and quantified by image processing. The amount of Abeta in neuronal dendrites is assessed by counting the number of labeled puncta on the neuritis. […] This labeling is associated with synapses, co-localizing with the post-synaptic scaffold protein PSD-95 (Lacor et al., '04). […] The number of synapses can also be quantified in this assay by immunofluorochemistry. Similar procedures for binding assays can be found in the literature. […] Review.
Primary hippocampal neuronal culture was established as in the membrane trafficking assay above. […] Pretreatment with compounds to be tested lasted for 1 hr and addition of Abeta oligomers or no oligomer (vehicle alone) in a final concentration of 70 ul was followed by incubation for an additional 23 hrs.
The plates were then washed 3× with PBS for 5 min each. The plates were blocked at RT for 1 hr in 5% goat serum and 0.5% Triton X-100 in PBS. […] Primary antibodies were incubated overnight at 4° C. The plates were then washed 3× with PBS for 5 min each. […] Secondary antibodies were incubated at RT for 1 hr. The plates were washed once with PBS. DAPI (4′,6-diamidino-2-phenylindole, Invitrogen) was then applied at 0.03 ug/ul and incubated at RT for 5 min, then washed with PBS.
Images were captured and analyzed with the Cellomics VTI automated microscope platform, using the Neuronal Profiling algorithm. For statistical analysis, a Tukey-Kramer pair-wise comparison with unequal variance was used.

[3] = tested on: SKOV-3 human ovarian cancer cell line; assay: MTS tumor cell viability assay; assay type: cell-based; conditions: for Action: agonist/antagonist call relative to siramesine; for IC50: Tumor cell viability, 48 hrs
Protocol: The cytotoxicity of compounds shown below was determined using the CellTiter96 Aqueous One Solution Assay (Promega, Madison, Wis.). […] The plate was read at 490 nm in a Victor3 plate reader (PerkinElmer Life and Analytical Sciences, Shelton, Conn.). The EC^50 value, defined as the concentration of the sigma ligand required to inhibit cell viability by 50% relative to untreated cells, was determined from the dose response curve for each cell line.

[4] = tested on: neuronal cultures
[5] = tested on: caspase-3 activity in SKOV-3 human ovarian cancer cells; assay: Caspase-3 activity assay in tumor cells; assay type: cell-based
[6] = tested on: caspase-3 activity in neurons; assay: Caspase-3 activity assay in neurons; assay type: cell-based
Protocol: The activation of endogenous caspase-3 by sigma-2 receptor ligands was measured using the Caspase-3 Colorimetric Activity Assay Kit (Milipore, Billerica, Mass.) according to the manufacture's protocol. Briefly, MDA-MB 435 or MDA-MB23I cells were plated at 0.5×10^6 cells 100 mm dish. 24 hours after plating, sigma-2 ligands were added to the culture dishes to induce caspase 3 activation. The final concentration of the sigma-2 ligand was its EC50. 24 hours after treatment, cells were harvested, lysed in 300 uL of Cell Lysis Buffer, and centrifuged for 5 minutes at 10,000×g. Supernatant was collected and incubated with caspase-3 substrate, DEVD-pNA, for 2 hours at 37° C. […] Compounds IXa,IXb and II behaved like sigma-2 […] in both cancer cells and neurons.

[7] = tested on: neuronal cultures; assay: Nuclear intensity / morphology in neuronal cultures; conditions: 24 hours
[8] = tested on: sigma-2 receptor; assay: Autoradiography, displacement of [3H]-RHM-1 in brain sections; assay type: binding; conditions: 1 μM; monkey frontal cortex, monkey hippocampus, human temporal cortex
Protocol: Brain sections in 20 μM thickness from rats, rhesus monkeys and postmortem human brains were cut using with a Microm cryotome and mounted on superfrost plus glass slides (Fisher Scientific, Pittsburgh, Pa.)., and serial sections through the brain regions of cerebral cortex and hippocampus were used in this study.
Slides were dried and made conductive by coating with a copper foil tape on the free side and then placed in the gas chamber [mixture of argon and triethylamine (Sigma-Aldrich, USA)] of a gaseous detector, the Beta Imager 2000Z Digital Beta Imaging System (Biospace, France). […] [^3H]Microscale (American Radiolabeled Chemicals, Inc., St. Louis, Mo.) was counted at the same time as a reference for total radioactivity quantitative analysis, i.e., to convert the cpm/mm2 to nCi/mg tissue. Quantitative analysis was performed with the program Beta-Image Plus (BioSpace, France) for the anatomical regions of interest (ROI), i.e., to obtain the quantitative radioactivity uptake (cpm/nlln2) in the regions of cortex and hippocampus. The binding density was normalized to fmol/mg tissue based on the specific activities of the corresponding radioligands and calibration curve from the standard [^3H]Microscale.

Molecule: COc1cc(CCC(C)NCc2ccc(C(F)(F)F)cc2)ccc1O (single isomer, unassigned; (+)) [(+) enantiomer of Cpd II]
- Functional Neuronal Phenotype [1]: Antagonist
- EC50 ([1]; dose response of % vesicles against Abeta oligomer concentration, 0 uM of enantiomer (Abeta oligomer alone), read-out: EC50 against Abeta at Concentration 0 uM): 1190 nM
- EC50 ([1]; read-out: EC50 against Abeta at Concentration 20 uM, dose response of % vesicles against Abeta oligomer concentration, 20 uM of enantiomer): 1460 nM
- Block synapse loss ([2]; listed as II (+) isomer): 47%

Molecule: COc1cc(CCC(C)NCc2ccc(C(F)(F)F)cc2)ccc1O (single isomer, unassigned; (-)) [(−) enantiomer of Cpd II]
- EC50 ([1]; Rattus norvegicus, Hippocampal neuron, Table 4, read-out: EC50 in screening assay using single concentration of Abeta oligomer): 10900 nM
- EC50 ([1]; Rattus norvegicus, Hippocampal neuron, dose response of % vesicles against Abeta oligomer concentration, 0 uM of enantiomer (Abeta oligomer alone), read-out: EC50 against Abeta at Concentration 0 uM): 1050 nM
- EC50 ([1]; Rattus norvegicus, Hippocampal neuron, read-out: EC50 against Abeta at Concentration 20 uM, dose response of % vesicles against Abeta oligomer concentration, 20 uM of enantiomer): 2820 nM
- Functional Neuronal Phenotype [1]: Antagonist
- Block synapse loss ([2]; listed as II (−) isomer): 0%

Molecule: CCCN(CCC)CCc1ccc(OC)c(OCCc2ccccc2)c1 [NE-100, reference compound]
- Abeta oligomer-induced synapse loss [2]: completely eliminated synapse loss

Molecule: COc1cc2c(cc1OC)CN(CCCCNC(=O)c1cc(C)ccc1OC)CC2 [RHM-1, N-[4-(3,4-dihydro-6,7-dimethoxyisoquinolin-2(1H)-yl)butyl]-2-methoxy-5-methylbenzamide]
- Action [3]: Antagonist
- Nuclear morphology / nuclear intensity compared to vehicle [4]: did not decrease nuclear intensity
- Block of caspase-3 activation caused by sigma-2 receptor agonist SV-119 [5]: do not block caspase-3 activation
- Induction of caspase-3 activity [5]: did not induce caspase-3 activity
- Induction of caspase-3 activity [6]: did not induce caspase-3 activity

Molecule: COc1ccc(C)cc1NC(=O)OC1CC2CCCC(C1)N2CCCCCCN (stereo not drawn) [SV-119]
- Nuclear morphology / nuclear intensity compared to vehicle [7]: caused significant abnormal nuclear morphology
- IC50 [3]: 21.7 ± 2.9 µM
- Action [3]: Full agonist
- Induction of caspase-3 activity [5]: activate caspase-3
- Induction of caspase-3 activity [6]: activate caspase-3

Molecule: Fc1ccc(-n2cc(CCCCN3CCC4(CC3)OCc3ccccc34)c3ccccc32)cc1 [Siramesine]
- Nuclear morphology / nuclear intensity compared to vehicle [7]: caused significant abnormal nuclear morphology
- Action [3]: Full agonist
- Induction of caspase-3 activity [5]: induced caspase-3 activity
- Induction of caspase-3 activity [6]: induced
- Displacement of 18.4 nM [3H]-RHM-1 [8]: partially displace

Molecule: COc1ccc(C)cc1NC(=O)OC1CC2CCCC(C1)N2Cc1ccc(N(C)C)cc1 (stereo not drawn) [WC-26]
- Nuclear morphology / nuclear intensity compared to vehicle [7]: caused significant abnormal nuclear morphology
- IC50 [3]: 65.6 ± 6.3 µM
- Action [3]: Partial agonist

Molecule: O=C(CCCN1CCC(O)(c2ccc(Cl)cc2)CC1)c1ccc(F)cc1 [haloperidol, reference compound]
- Abeta oligomer-induced synapse loss [2]: completely eliminated synapse loss

Molecule: synthetic Abeta oligomer: Abeta 1-42 oligomers made according to published methods [reference compound]
- EC50 ([1]; synthetic Abeta oligomer alone, read-out: EC50 of Abeta oligomer in membrane trafficking assay): 820 nM
